According to patent US9902696B2, “1,4-substituted piperidine derivatives” (Cephalon, Inc., priority 2015, dated 2018):
Counter-ions that a name gives are not always drawn. Like-named read-outs stand apart in the source and are kept apart here.

Biological target: T1, recombinant human baculovirus-expressed GST-tagged FASN (Homo sapiens, UniProt P49327)
T1 construct: GST
Experiment: FASN enzyme activity assay, fluorescence-based detection of CoA with CPM
Assay type: biochemical
Conditions: 5 nM FASN, 150 μM NADPH, 10 μM acetyl-CoA, 25 μM malonyl-CoA, 90 minutes incubation
Procedure, shortened: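 CoA product reacted with thiol-reactive CPM (diluted to 50 μM in 70% ethanol), read at 390/530 nm after 30 min. Preceding reaction: 90 min, 5 nM recombinant GST-FASN, 150 μM NADPH, 10 μM acetyl-CoA, 25 μM malonyl-CoA, pH 7.5 HEPES, 0.5% DMSO. IC50s fitted by nonlinear sigmoidal regression.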

[1] = read-out: IC50 data for Compounds of Formulae I-V/V(a): Activity
[2] = read-out: IC50 data for Additional Compounds of Formulae I-V(a): Activity

T1 sequence (P49327 whole entry): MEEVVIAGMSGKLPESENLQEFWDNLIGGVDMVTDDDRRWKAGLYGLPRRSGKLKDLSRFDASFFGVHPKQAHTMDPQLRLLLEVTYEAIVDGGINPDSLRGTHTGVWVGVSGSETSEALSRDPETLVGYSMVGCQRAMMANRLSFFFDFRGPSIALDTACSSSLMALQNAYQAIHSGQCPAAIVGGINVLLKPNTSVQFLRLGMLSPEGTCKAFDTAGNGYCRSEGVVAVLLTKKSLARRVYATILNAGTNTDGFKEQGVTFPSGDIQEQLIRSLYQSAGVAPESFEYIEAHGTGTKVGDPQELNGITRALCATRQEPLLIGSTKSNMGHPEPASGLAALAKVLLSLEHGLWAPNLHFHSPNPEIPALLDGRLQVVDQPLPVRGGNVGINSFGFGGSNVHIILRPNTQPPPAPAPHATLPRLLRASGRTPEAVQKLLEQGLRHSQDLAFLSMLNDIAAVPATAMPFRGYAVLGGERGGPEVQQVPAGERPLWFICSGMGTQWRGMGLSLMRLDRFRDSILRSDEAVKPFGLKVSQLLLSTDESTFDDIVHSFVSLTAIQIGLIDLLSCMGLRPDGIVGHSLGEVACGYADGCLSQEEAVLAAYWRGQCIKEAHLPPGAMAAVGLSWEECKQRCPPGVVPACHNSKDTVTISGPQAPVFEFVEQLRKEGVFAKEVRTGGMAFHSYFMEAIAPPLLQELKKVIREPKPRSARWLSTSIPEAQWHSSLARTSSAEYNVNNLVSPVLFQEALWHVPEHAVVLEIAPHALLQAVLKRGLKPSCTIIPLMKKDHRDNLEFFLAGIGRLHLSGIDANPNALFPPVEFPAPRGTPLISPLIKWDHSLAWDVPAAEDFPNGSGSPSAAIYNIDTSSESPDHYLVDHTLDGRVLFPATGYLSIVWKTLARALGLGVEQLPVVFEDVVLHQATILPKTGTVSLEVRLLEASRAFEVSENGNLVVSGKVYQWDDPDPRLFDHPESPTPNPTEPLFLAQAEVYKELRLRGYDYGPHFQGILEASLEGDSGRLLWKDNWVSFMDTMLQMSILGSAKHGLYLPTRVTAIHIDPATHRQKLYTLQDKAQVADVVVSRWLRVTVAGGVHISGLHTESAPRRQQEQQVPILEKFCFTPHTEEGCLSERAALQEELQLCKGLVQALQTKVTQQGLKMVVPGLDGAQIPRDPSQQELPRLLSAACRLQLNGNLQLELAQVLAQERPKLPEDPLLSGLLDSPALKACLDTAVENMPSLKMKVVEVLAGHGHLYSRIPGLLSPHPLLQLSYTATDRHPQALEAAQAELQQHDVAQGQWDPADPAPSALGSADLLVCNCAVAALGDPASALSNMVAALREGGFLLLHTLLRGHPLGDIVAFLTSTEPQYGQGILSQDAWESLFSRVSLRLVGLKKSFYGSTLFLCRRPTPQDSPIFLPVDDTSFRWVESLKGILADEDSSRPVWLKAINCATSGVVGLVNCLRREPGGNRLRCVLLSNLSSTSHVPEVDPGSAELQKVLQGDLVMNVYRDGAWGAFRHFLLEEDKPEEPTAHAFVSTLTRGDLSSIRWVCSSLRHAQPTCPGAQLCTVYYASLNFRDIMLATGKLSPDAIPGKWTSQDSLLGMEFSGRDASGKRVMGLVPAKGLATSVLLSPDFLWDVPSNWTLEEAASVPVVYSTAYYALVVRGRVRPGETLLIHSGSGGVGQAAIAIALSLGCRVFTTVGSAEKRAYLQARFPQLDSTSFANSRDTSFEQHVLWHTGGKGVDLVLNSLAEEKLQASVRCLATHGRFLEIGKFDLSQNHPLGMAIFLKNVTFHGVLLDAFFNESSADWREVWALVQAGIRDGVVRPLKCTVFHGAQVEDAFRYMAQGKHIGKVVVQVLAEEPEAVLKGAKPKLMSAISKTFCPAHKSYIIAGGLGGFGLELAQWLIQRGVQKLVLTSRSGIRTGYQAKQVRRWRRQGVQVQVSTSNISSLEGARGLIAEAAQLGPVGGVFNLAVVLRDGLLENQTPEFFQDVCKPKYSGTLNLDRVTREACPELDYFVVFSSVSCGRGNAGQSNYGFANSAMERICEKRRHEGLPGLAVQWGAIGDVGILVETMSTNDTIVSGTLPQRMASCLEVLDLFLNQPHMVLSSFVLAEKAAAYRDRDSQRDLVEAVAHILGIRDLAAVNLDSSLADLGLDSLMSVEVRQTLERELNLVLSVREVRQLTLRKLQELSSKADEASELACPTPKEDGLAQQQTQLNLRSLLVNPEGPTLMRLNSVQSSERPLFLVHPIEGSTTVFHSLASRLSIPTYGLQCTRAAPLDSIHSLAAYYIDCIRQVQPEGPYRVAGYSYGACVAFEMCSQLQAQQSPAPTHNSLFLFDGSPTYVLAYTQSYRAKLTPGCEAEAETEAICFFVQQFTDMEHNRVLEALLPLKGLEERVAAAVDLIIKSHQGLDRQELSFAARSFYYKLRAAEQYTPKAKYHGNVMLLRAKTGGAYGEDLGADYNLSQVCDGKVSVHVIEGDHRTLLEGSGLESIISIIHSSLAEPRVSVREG

O=C([C@H]1CCCO1)N1CCC(Oc2ccc(-c3ccc4c(Cl)ccnc4c3)cc2)CC1 [Example 257, {4-[4-(4-Chloroquinolin-7-yl)-phenoxy]-piperidin-1-yl}-(R)-tetrahydro-furan-2-yl-methanone, TFA salt]
IC50 [1]: 1 to 99 nM

Cc1c(-c2ccc(OC3CCN(C(=O)[C@H]4CCCO4)CC3)cc2)ccc2cccnc12 [Example 69, {4-[4-(8-Methylquinolin-7-yl)-phenoxy]-piperidin-1-yl}-(R)-tetrahydro-furan-2-yl-methanone]
IC50 [1]: 1 to 99 nM

O=C(C1CCC1)N1CCC(Oc2ccc(-c3cnc4cccc(F)c4c3)cc2)CC1 [Example 31, Cyclobutyl-{4-[4-(5-fluoroquinolin-3-yl)-phenoxy]-piperidin-1-yl}-methanone]
IC50 [1]: 1 to 99 nM

Cc1c(-c2ccc(OC3CCN(C(=O)NCC(C)C)CC3)cc2)ccc2ccnn12 [Example 633, N-Isobutyl-4-[4-(7-methylpyrazolo[1,5-a]pyridin-6-yl)phenoxy]piperidine-1-carboxamide]
IC50 [2]: 1 to 99 nM

O=C(C1CC1)N1CCC(Oc2ccc(-c3ccc(Cl)c(Cl)c3)cc2)CC1 [Example 501, Cyclopropyl-[4-(3′,4′-dichlorobiphenyl-4-yloxy)-piperidin-1-yl]-methanone]
IC50 [1]: 1000 to 10000 nM

CCONC(=O)N1CCC(Oc2ccc(-c3ccc4cccnc4c3C)cc2)CC1 [Example 93, N-ethoxy-4-[4-(8-methyl-7-quinolyl)phenoxy]piperidine-1-carboxamide]
IC50 [1]: 1 to 99 nM

CCC(=O)N1CCC(Oc2ccc(-c3cnc4c(c3)CCCC4)cc2)CC1 [Example 21, 1-{4-[4-(5,6,7,8-Tetrahydroquinolin-3-yl)-phenoxy]-piperidin-1-yl}-propan-1-one]
IC50 [1]: 1000 to 10000 nM

CC1(C(=O)N2CCC(Oc3ccc(-c4cnc5ccccc5c4)cc3)CC2)OCCO1 [Example 116, (2-Methyl-1,3-dioxolan-2-yl)-[4-(4-quinolin-3-yl-phenoxy)-piperidin-1-yl]-methanone, HCl]
IC50 [1]: 1 to 99 nM

Cc1ccc2ncc(-c3ccc(OC4CCN(C(=O)C5CC5)CC4)cc3)cc2c1 [Example 484, Cyclopropyl-{4-[4-(6-methylquinolin-3-yl)-phenoxy]-piperidin-1-yl}-methanone, HCl]
IC50 [1]: 100 to 999 nM

CCC(=O)N1CCC(Oc2ccc(-c3cnc4cc(OC)ccc4c3)cc2)CC1 [Example 35, 1-{4-[4-(7-Methoxyquinolin-3-yl)-phenoxy]-piperidin-1-yl}-propan-1-one]
IC50 [1]: 1 to 99 nM

CCC(=O)N1CCC(Oc2ccc(-c3c[nH]c4ccccc34)cc2)CC1 [Example 246, 1-{4-[4-(1H-Indol-3-yl)-phenoxy]-piperidin-1-yl}-propan-1-one]
IC50 [1]: 1000 to 10000 nM

CCC(=O)N1CCC(Oc2ccc(-c3ccc4cn(C)nc4c3)cc2)CC1 [Example 251, 1-{4-[4-(2-Methyl-2H-indazol-6-yl)-phenoxy]-piperidin-1-yl}-propan-1-one]
IC50 [1]: 100 to 999 nM

CCC(=O)N1CCC(Oc2ccc(-c3ccc4ccc(C)nc4c3)cc2)CC1 [Example 253, 1-{4-[4-(2-Methylquinolin-7-yl)-phenoxy]-piperidin-1-yl}-propan-1-one, TFA salt]
IC50 [1]: 1000 to 10000 nM

CCC(=O)N1CCC(Oc2ccc(-c3cnc4cc(C)ccc4c3)cc2)CC1 [Example 63, 1-{4-[4-(7-Methylquinolin-3-yl)-phenoxy]-piperidin-1-yl}-propan-1-one]
IC50 [1]: 100 to 999 nM

CCC(=O)N1CCC(Oc2ccc(-c3ccc4sccc4c3)cc2)CC1 [Example 247, 1-[4-(4-Benzo[b]thiophen-5-yl-phenoxy)-piperidin-1-yl]-propan-1-one]
IC50 [1]: 100 to 999 nM

O=C(C1CC1)N1CCC(Nc2ccc(-c3cnc4ccccc4c3)cc2)CC1 [Example 527, Cyclopropyl-[4-(4-quinolin-3-yl-phenylamino)-piperidin-1-yl]-methanone, HCl]
IC50 [1]: 1000 to 10000 nM

O=C([C@H]1CCCO1)N1CCC(Oc2ccc(-c3ccc4cccnc4c3OCCN3CCOCC3)cc2)CC1 [Example 182, (4-{4-[8-(2-Morpholin-4-yl-ethoxy)-quinolin-7-yl]-phenoxy}-piperidin-1-yl)-(R)-tetrahydrofuran-2-yl-methanone, 2HCl]
IC50 [1]: 100 to 999 nM

Cc1c(-c2ccc(OC3CCN(C(=O)C(C)(F)F)CC3)cc2)ccc2cccnc12 [Example 358, 2,2-Difluoro-1-{4-[4-(8-methylquinolin-7-yl)-phenoxy]-piperidin-1-yl}-propan-1-one, HCl]
IC50 [1]: 100 to 999 nM

Cc1c(-c2ccc(OC3CCN(C(=O)C4(N)CC4)CC3)cc2)ccc2cccnc12 [Example 316, (1-Aminocyclopropyl)-{4-[4-(8-methyl-quinolin-7-yl)-phenoxy]-piperidin-1-yl}-methanone]
IC50 [1]: 1 to 99 nM

O=C([C@@H]1CCCO1)N1CCC(Oc2ccc(-c3cnc4ccccc4c3)cc2)CC1 [Example 104, [4-(4-Quinolin-3-yl-phenoxy)-piperidin-1-yl]-(S)-tetrahydrofuran-2-yl-methanone, HCl]
IC50 [1]: 1 to 99 nM

Cc1c(-c2ccc(OC3CCN(C(=O)C4CCC4)CC3)cc2)cccc1-c1ccccn1 [Example 408, Cyclobutyl-[4-(2′-methyl-3′-pyridin-2-yl-biphenyl-4-yloxy)-piperidin-1-yl]-methanone, TFA salt]
IC50 [1]: 1000 to 10000 nM

O=C(C1CC1)N1CCC(Oc2ccc(-c3ccc4ccccc4n3)cc2)CC1 [Example 39, Cyclopropyl-[4-(4-quinolin-2-yl-phenoxy)-piperidin-1-yl]-methanone]
IC50 [1]: 100 to 999 nM

CC(=O)C(=O)N1CCC(Oc2ccc(-c3cnc4ccccc4c3C)cc2)CC1 [Example 72, 1-{4-[4-(4-Methylquinolin-3-yl)-phenoxy]-piperidin-1-yl}-propane-1,2-dione]
IC50 [1]: 1 to 99 nM

CCC(=O)N1CCC(Oc2ccc(-c3cnc4ccccc4c3NC)cc2)CC1 [Example 235, 1-{4-[4-(4-Methylaminoquinolin-3-yl)-phenoxy]-piperidin-1-yl}-propan-1-one]
IC50 [1]: 1000 to 10000 nM

CCC(=O)N1CCC(Oc2ccc(-c3ccc4cnccc4c3)nc2)CC1 [Example 147, 1-[4-(6-Isoquinolin-6-yl-pyridin-3-yloxy)-piperidin-1-yl]-propan-1-one, 2HCl]
IC50 [1]: 1000 to 10000 nM

Cc1c(-c2ccc(OC3CCN(C(=O)NOC(C)C)CC3)cc2)ccc2ccnn12 [Example 537, N-Isopropoxy-4-[4-(7-methylpyrazolo[1,5-a]pyridin-6-yl)phenoxy]piperidine-1-carboxamide]
IC50 [2]: 1 to 99 nM

O=C(C1CC1)N1CCC(Oc2ccc(-c3ccc4cnccc4c3)nc2)CC1 [Example 149, Cyclopropyl-[4-(6-isoquinolin-6-yl-pyridin-3-yloxy)-piperidin-1-yl]-methanone, 2HCl]
IC50 [1]: 1000 to 10000 nM

COCCOc1c(-c2ccc(OC3CCN(C(=O)[C@H]4CCCO4)CC3)cc2)ccc2cccnc12 [Example 186, [4-[4-[8-(2-Methoxyethoxy)-7-quinolyl]phenoxy]-1-piperidyl]-[(2R)-tetrahydrofuran-2-yl]methanone, HCl]
IC50 [1]: 1 to 99 nM

O=C(C1CCC1)N1CCC(Oc2ccc(-c3ccc(-c4ccccc4)nc3)cc2)CC1 [Example 381, Cyclobutyl-{4-[4-(6-phenyl-pyridin-3-yl)-phenoxy]-piperidin-1-yl}-methanone]
IC50 [1]: 100 to 999 nM

O=C([C@H]1CCCO1)N1CCC(Oc2ccc(-c3cnc4ccccc4c3N3CCOCC3)cc2)CC1 [Example 238, {4-[4-(4-Morpholin-4-yl-quinolin-3-yl)-phenoxy]-piperidin-1-yl}-(R)-tetrahydrofuran-2-yl-methanone]
IC50 [1]: 100 to 999 nM

Cc1c(-c2ccc(OC3CCN(C(=O)OC4CCOCC4)CC3)cc2)ccc2cccnc12 [Example 556, Tetrahydropyran-4-yl 4-[4-(8-methyl-7-quinolyl)phenoxy]piperidine-1-carboxylate]
IC50 [2]: 1000 to 10000 nM

CO[C@H](C)C(=O)N1CCC(Oc2ccc(-c3cnc4ccccc4c3)cc2)CC1 [Example 108, (R)-2-Methoxy-1-[4-(4-quinolin-3-yl-phenoxy)-piperidin-1-yl]-propan-1-one, 2HCl]
IC50 [1]: 100 to 999 nM

Cc1c(-c2ccc(OC3CCN(C(=O)NO)CC3)cc2)ccc2cccnc12 [Example 554, 4-[4-(8-Methyl-7-quinolyl)phenoxy]piperidine-1-carbohydroxamic acid, HCl]
IC50 [2]: 1000 to 10000 nM

O=C(C1CC1)N1CCC(Oc2ccc(-c3ccn4cnnc4c3)cc2)CC1 [Example 308, Cyclopropyl-[4-(4-[1,2,4]triazolo[4,3-a]pyridin-7-yl-phenoxy)-piperidin-1-yl]-methanone]
IC50 [1]: 1000 to 10000 nM

Cc1c(-c2ccc(OC3CCN(C(=O)OC(C)(C)C)CC3)cc2)ccc2nccn12 [Example 605, tert-Butyl 4-[4-(5-methylimidazo[1,2-a]pyridin-6-yl)phenoxy]piperidine-1-carboxylate]
IC50 [2]: 1000 to 10000 nM

CCC(=O)N1CCC(Oc2ccc(-c3ccc4ncnn4c3C)cc2)CC1 [Example 313, 1-{4-[4-(5-Methyl-[1,2,4]triazolo[1,5-a]pyridin-6-yl)-phenoxy]-piperidin-1-yl}-propan-1-one]
IC50 [1]: 1000 to 10000 nM

O=C([C@H]1CCCO1)N1CCC(Oc2ccc(-c3ccc4ccccc4n3)cc2)CC1 [Example 42, [4-(4-Quinolin-2-yl-phenoxy)-piperidin-1-yl]-(R)-tetrahydrofuran-2-yl-methanone]
IC50 [1]: 1 to 99 nM

CCNC(=O)N1CCC(Oc2ccc(-c3ccc4nccn4c3C)cc2)CC1 [Example 592, N-Ethyl-4-[4-(5-methylimidazo[1,2-a]pyridin-6-yl)phenoxy]piperidine-1-carboxamide]
IC50 [2]: 1 to 99 nM

COc1c(-c2ccc(OC3CCN(C(=O)[C@H]4CCCO4)CC3)cc2)ccc2cccnc12 [Example 272, {4-[4-(8-Methoxyquinolin-7-yl)-phenoxy]-piperidin-1-yl}-(R)-tetrahydro-furan-2-yl-methanone, TFA salt]
IC50 [1]: 1 to 99 nM
